These results are taken from US12390448B2, “Prevention or of disease states due to metal dis-homeostasis via administration of posiphen to healthy or sick humans” (ANNOVIS BIO, INC., priority 2017, dated 2025).

“And” between values parts separate entries of the source, which are not always exact repeats. Equal values may be shown once.

For one data set, the target named is T1, IRP1 (Homo sapiens, UniProt P21399).
T1 sequence (P21399 1-889): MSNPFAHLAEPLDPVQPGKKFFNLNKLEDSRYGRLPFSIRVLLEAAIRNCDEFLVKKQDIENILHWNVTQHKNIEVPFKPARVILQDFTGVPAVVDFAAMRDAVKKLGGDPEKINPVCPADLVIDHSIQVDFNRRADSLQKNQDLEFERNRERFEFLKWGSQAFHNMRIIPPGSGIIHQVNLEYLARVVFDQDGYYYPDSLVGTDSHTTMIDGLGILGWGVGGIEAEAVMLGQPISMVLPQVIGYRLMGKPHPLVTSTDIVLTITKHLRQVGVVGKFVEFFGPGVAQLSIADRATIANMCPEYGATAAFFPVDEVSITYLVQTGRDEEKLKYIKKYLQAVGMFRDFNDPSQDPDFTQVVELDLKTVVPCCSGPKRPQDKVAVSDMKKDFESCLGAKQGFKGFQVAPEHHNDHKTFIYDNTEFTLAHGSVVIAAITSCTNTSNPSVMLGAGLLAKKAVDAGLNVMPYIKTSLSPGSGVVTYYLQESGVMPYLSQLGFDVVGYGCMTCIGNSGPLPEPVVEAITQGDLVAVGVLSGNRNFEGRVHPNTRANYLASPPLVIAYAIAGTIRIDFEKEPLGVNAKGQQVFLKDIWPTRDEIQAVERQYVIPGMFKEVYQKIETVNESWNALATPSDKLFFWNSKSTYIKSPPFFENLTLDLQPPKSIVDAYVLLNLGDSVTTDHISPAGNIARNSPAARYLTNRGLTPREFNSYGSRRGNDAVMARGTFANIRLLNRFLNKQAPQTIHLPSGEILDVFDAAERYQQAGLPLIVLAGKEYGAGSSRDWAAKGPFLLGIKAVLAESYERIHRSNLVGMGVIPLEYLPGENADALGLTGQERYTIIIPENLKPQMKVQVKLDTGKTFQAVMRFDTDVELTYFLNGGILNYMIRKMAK
The experiment in a line: Microscale thermophoresis (MST) binding of IRE RNAs to IRP1. As to conditions: cell free, labeled IRP1 2 nM, without Posiphen; read-out: Kd of IRE RNA binding to IRP1. As for the experimental part: (§1) Microscale thermophoresis (MST) binding experiments were done to assess binding in vitro between the different components. MST binding experiments were performed by incubating N-termini labeled protein (2 nM) with serial 2-fold dilutions of IRE RNAs, H-Ferritin ([…]) or APP ([…]) for 10 min in incubation buffer (Tris pH 7.4, 0.5%, 15 mM NaCl and 0.1% Prionex). IPR-1 was N-termini labeled with RED-NHS amino reactive labeling kit (NanoTemper Technologies, Germany). For determination of Posiphen binding, reactions containing IPR1 (2 nM), IRP1/H-Ferritin (2, 250 nM), or IRP1/APP (2, 600 nM) were incubated for 10 min with 2-fold dilutions of Posiphen tartrate. After incubation, samples were centrifuged at 13,000 rpm for 2 minutes before being loaded into standard capillaries provided by the manufacturer. Fluorescence values from the binding reactions were determined using the Monolith NT.115 (Nano Temper Technologies). Kd values were using the NanoTemper Technologies software. Conditions were standardized.
Background: In MST a laser heats a spot of the sample, and binding alters the fluorescence response.

A further data set concerns SNCA. As to conditions: cited from earlier work.
Data set [1] relates to neurotoxic aggregating proteins. Briefly: Translation of neurotoxic aggregating proteins in healthy mouse brain. It is filed as in vivo. An excerpt: Therefore, the original data concerning the effects of Posiphen working under all conditions is wrong. It only works in stressed cells, dividing cells and sick cells, e.g., those cells that have high levels of iron.
In another data set the target is T2, IRP1/APP RNA complex (Homo sapiens, UniProt P21399).
T2 sequence (P21399 1-889): T1 sequence (P21399 1-889)
The experiment in a line: MST binding of Posiphen to IRP1/APP RNA complex. The settings on record: IRP1/APP 2, 600 nM; Posiphen tartrate; read-out: Kd, binding of Posiphen to APP IRE/IRP1 complex. The protocol: as §1

The test system of a further data set is aSYN. Briefly: aSYN in enteric nervous system of transgenic PD mice. It is filed as in vivo. The settings on record: PAC-Tg(SNCAA53T) mice, 21 weeks. The protocol: In Example 6, the effect of Posiphen on mice homozygous for the PAC-Tg(SNCAA53T) transgene was tested over the course of 21 weeks.
In a further data set the test system is retinal neurons. The experiment in a line: Acute glaucoma in rats, retinal cell death. It is filed as in vivo. The settings on record: acute glaucoma by raised intraocular pressure. The source says:
When acute glaucoma is induced by increasing the pressure in an eye, the retina gets destroyed. In Example 10, acute glaucoma was induced in rats by increasing intraocular pressure by micro-injection of saline into the anterior chamber. This induces large amounts of apoptotic cell death in the retina. There are twice as many dead cells in high pressure retinas of rats treated with vehicle versus control untreated rats. Posiphen rescued 72% of the retinal neurons. The results are depicted in FIG. 23. Administration of Posiphen to those rats preserves the retina and protects the retinal cells from dying.

The conditions of data set [2]: cited from earlier work.
The target in data set [3] is T3, IRP1/H-Ferritin RNA complex (Homo sapiens, UniProt P21399).
T3 sequence (P21399 1-889): T1 sequence (P21399 1-889)
The experiment in a line: MST binding of Posiphen to IRP1/H-Ferritin RNA complex. The settings on record: IRP1/H-Ferritin 2, 250 nM; Posiphen tartrate. The protocol:
as §1

“H-Ferritin: H-Ferritin IRE RNA oligo GGGGUUUCCUGCUUCAACAGUGCUUGGACGGAACC (RNA, backbone not given here)”: in the data set with IRP1, the Kd came out at 88.5 nM.
Still for that read-out and setting: under “APP: APP IRE RNA oligo GGUGGCGGCGCGGGCAGAGCAAGGACGCGGCGGAU (RNA, backbone not given here)” stands 225 nM.
For `C[C@]12CC[C@H]3[C@@H](CC[C@]4(O)C[C@@H](O)CC[C@]34C=O)[C@@]1(O)CC[C@@H]2C1=CC(=O)OC1` [strophanthidine], the “SNCA expression in neural cells, Western blotting” value in the data set with SNCA is on record as “selectively blocked”.
Consider `CN1CC[C@]2(C)c3cc(OC(=O)Nc4ccccc4)ccc3N(C)C12` (stereo partly drawn) [Posiphen, (3aR)-1,3a,8-trimethyl-1,2,3,3a,8,8a-hexahydropyrrolo[2,3-b]indol-5-ylphenylcarbamate], for which the “translation of neurotoxic aggregating proteins” value in data set [1] is given as “does not inhibit”. At IRP1/APP RNA complex, the Kd is 3.2 nM and 3.22 nM. In addition, the “inhibition of aSYN in enteric nerves” value in the data set on aSYN was “about 40%”. Further, in the data set with retinal neurons, the retinal neurons rescued was found to be 72%. For the same compound, in data set [2] (doses up to 4×60 mg daily×10 days, humans), the tolerability result is on record as “well tolerated”. In addition, the “terminal half-life in plasma” value in data set [2] (human, all doses) was 4.3 to 4.7 h. Also, the “binding of Posiphen to the IRP1/H-Ferritin RNA complex” value in data set [3] is “no binding”.
